Assay results taken from patent publication US20250354115A1, “METHOD FOR PRODUCING STEM CELLS AND METHOD FOR PRODUCING GAMMA DELTA T CELLS” (I Peace, Inc., priority 2022, published 2025).

Key:
[1] = tested on: γδ T cell receptor (TCR); test: Stimulation of iPS-derived T cell progenitors through the γδ T cell receptor, flow cytometry (Example 5); type: cell-based, human; conditions: day 35; HMBPP 0.01 μg/mL to 1 μg/mL or zoledronic acid 5 μmol/L; no marker expression without stimulants; FIG. 11
Protocol: αMEM medium supplemented with a final concentration of 20% FBS and 1% penicillin/streptomycin was prepared as an OP9 cell culture medium.
OP9 cell culture medium supplemented with a final concentration of 100 mmol/L vitamin C, 10 ng/ML IL-7, 10 μg/mL FLT3 ligand, and 10 μg/mL stem cell factor (SCF) was prepared as a differentiation induction medium.
A dish on which OP9 cells were cultured was prepared as the feeder cells. The OP9 cells were cultured in the OP9 medium. Multiple cell clusters of iPS cells were seeded onto the feeder cells, and stem cell medium containing 10 μmol/L Y27632 was added. The cells were cultured for two days. On the second day, the medium was replaced with the OP9 medium supplemented with vitamin C, and the cells were cultured for an additional 12 days. On days 5, 9, and 13, half of the medium was removed from the dish and replaced with fresh OP9 medium supplemented with vitamin C.
During the 14-day culture, the differentiation of iPS cells into hematopoietic progenitor cells was observed. The cells were confirmed to be positive for CD34 and CD43, which are markers of hematopoietic cells. […]
It was confirmed that CD3 and γδ TCR (Vγ9) were expressed on the surface of the cells. […] In the negative control, where no stimulants were added, no marker expression was detected.

[2] = tested on: Human peripheral blood mononuclear cells; test: iPS cell induction from mononuclear cells in PTA-containing medium (Example 1); type: cell-based; conditions: IL-2 added daily
Protocol: A PTA-containing medium according to Example 1 was prepared using RPMI 1640 medium (Gibco) containing […] of tetrakis-pivaloyloxymethyl-2-(thiazol-2-ylamino) ethylidene-1, 1-bisphosphonate (PTA, Techno Suzuta), 10% fetal bovine serum (Life Technologies), 1.0×10^−5 mol/L 2-mercaptoethanol (Nacalai Tesque), 100 U/mL penicillin, and 100 μg/mL streptomycin (Life Technologies).
Human peripheral blood mononuclear cells were added to the PTA-containing medium according to Example 1, and a medium containing approximately 1×10^6 mononuclear cells was placed into a 24-well plate (Day 1). […] On Day 3, the medium containing cells was collected from the plate, centrifuged, and the supernatant was removed. Then, 2 mL of fresh PTA-containing medium according to Example 1 was added to the cells, and 1 mL of the medium was placed into two wells of a 24-well plate.
On Day 6, the medium containing cells was collected from the plate, centrifuged, and the supernatant was removed. Then, the PTA-containing medium according to Example 1 was added to the cells, and a medium containing 2×10^4 mononuclear cells was placed into a 96-well plate. KLF4, OCT3/4, SOX2, and c-MYC were introduced into the cells using MSRV (Tokiwa Bio). […]
Additionally, genomic DNA was extracted from the iPS cells, and the presence of the recombined Vγ9 gene was analyzed by PCR and electrophoresis. […]

SMILES | CD3 and γδ TCR (Vγ9) expression on the surface of the cells [1] | presence of the recombined Vγ9 gene in the iPS cells by PCR and electrophoresis ([2]; FIG. 3) | colonies of iPS cells on Day 14 ([2]; KLF4, OCT3/4, SOX2, c-MYC introduced using MSRV, MOI 5)
C/C(=C\COP(=O)(O)OP(=O)(O)O)CO [HMBPP, (E)-4-hydroxy-3-methyl-but-2-enyl pyrophosphate] | expressed | – | –
CC(C)(C)C(=O)OCOP(=O)(OCOC(=O)C(C)(C)C)C(CNc1nccs1)P(=O)(OCOC(=O)C(C)(C)C)OCOC(=O)C(C)(C)C [PTA, tetrakis-pivaloyloxymethyl-2-(thiazol-2-ylamino) ethylidene-1,1-bisphosphonate] | – | confirmed to possess a recombined Vγ9 gene with a JP gene | multiple colonies
